Laboratory results as given in US20240391862A1, “(1,4,5-TRISUBSTITUTED-1H-PYRAZOL-3-YL)OXY-2-ALKOXY ALKYL ACIDS AND THEIR DERIVATIVES, THEIR SALTS AND THEIR USE AS HERBICIDAL AGENTS” (Bayer AKtiengesellschaft, priority 2021, published 2024).

What was measured:
ECHCG = test: Post-emergence herbicidal effect, greenhouse pot test; assay type: in vivo, Echinochloa crus-galli; conditions: for pest or weed control at 80 g/ha / pest or weed control at 320 g/ha: read-out: Post-emergence effect against ECHCG in %
In short: (§1)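 Greenhouse pot test: weeds and crops sown in sandy loam, sprayed post-emergence at one-leaf stage (2–3 weeks after sowing) with WP or EC formulations plus 0.5% additive at 600 l/ha water, rates 20–320 g/ha. Visual rating about 3 weeks later versus untreated controls (100% = dead, 0% = as control).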

KCHSC = test: as above; assay type: in vivo
In short: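 Greenhouse plants in sandy loam, sprayed post-emergence at the one-leaf stage (2–3 weeks after sowing) with WP or EC formulations in water plus 0.5% additive at 600 l/ha. Rates 20 to 320 g/ha. Activity rated visually after about 3 weeks against untreated controls (0% like control, 100% dead).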

ALOMY = test: as above; assay type: in vivo, Alopecurus myosuroides; conditions: 320 g/ha, visual rating about 3 weeks after treatment; for pest or weed control at 320 g/ha: Alopecurus myosuroides, 504 h, read-out: Post-emergence effect against ALOMY
In short: as §1

PHBPU = test: as above; assay type: in vivo, Ipomoea purpurea; conditions: for pest or weed control at 20 g/ha / pest or weed control at 80 g/ha / pest or weed control at 320 g/ha: Ipomoea purpurea, 504 h, read-out: Post-emergence effect against PHBPU in %
In short: as §1

SETVI = test: as above; assay type: in vivo, Setaria viridis
In short: as §1

AMARE = test: as above; assay type: in vivo, Amaranthus retroflexus; conditions: Amaranthus retroflexus, 504 h, visual rating about 3 weeks after treatment, read-out: Post-emergence effect against AMARE
In short: as §1

LOLRI = test: as above; assay type: in vivo, Lolium rigidum; conditions: for pest or weed control at 320 g/ha: Lolium rigidum, 504 h, read-out: Post-emergence effect against LOLRI in %
In short: as §1

POLCO = test: as above; assay type: in vivo, Fallopia convolvulus
In short: as §1

VERPE = test: as above; assay type: in vivo, Veronica persica
In short: as §1

MATIN = test: as above; assay type: in vivo, Tripleurospermum inodorum
In short: as §1

DIGSA = test: as above; assay type: in vivo, Digitaria sanguinalis; conditions: visual rating about 3 weeks after treatment
In short: as §1

ABUTH = test: as above; assay type: in vivo, Abutilon theophrasti; conditions: visual rating about 3 weeks after treatment; for pest or weed control at 80 g/ha / pest or weed control at 320 g/ha: Abutilon theophrasti, 504 h, read-out: Post-emergence effect against ABUTH
In short: as §1

AVEFA = test: as above; assay type: in vivo, Avena fatua; conditions: visual rating about 3 weeks after treatment
In short: as §1

ZEAMX = test: Post-emergence herbicidal effect and crop plant compatibility, greenhouse pot test; assay type: in vivo, Zea mays; conditions: one-leaf stage, rated visually after about 3 weeks vs untreated controls
In short: as §1

VIOTR = test: Post-emergence herbicidal effect, greenhouse pot test; assay type: in vivo, Viola tricolor
In short: as §1

[1] = Echinochloa crus-galli, 504 h, 80 g/ha
[2] = Echinochloa crus-galli, 504 h, 320 g/ha
[3] = 504 h, 80 g/ha, read-out: Post-emergence effect against KCHSC in %
[4] = 504 h, 320 g/ha, read-out: Post-emergence effect against KCHSC in %
[5] = Setaria viridis, 504 h, 320 g/ha, read-out: Post-emergence effect against SETVI in %
[6] = Fallopia convolvulus, 504 h, 320 g/ha, read-out: Post-emergence effect against POLCO in %
[7] = Veronica persica, 504 h, 320 g/ha, read-out: Post-emergence effect against VERPE in %
[8] = Digitaria sanguinalis, 504 h, 320 g/ha, read-out: Post-emergence effect against DIGSA
[9] = Avena fatua, 504 h, 320 g/ha, read-out: Post-emergence effect against AVEFA

For `CCOC(=O)C(OCC)Oc1nn(-c2ccccc2F)c(-c2ccc(F)nc2)c1Br` (single isomer, unassigned) [Example I-66, Ethyl (2R*)-{[4-bromo-1-(2-fluorophenyl)-5-(6-fluoropyridin-3-yl)-1H-pyrazol-3-yl]oxy}(ethoxy)acetate], the pest or weed control at 80 g/ha (ECHCG; [1]) was 90%, the pest or weed control at 320 g/ha (ECHCG; [2]) was 90% and the pest or weed control at 80 g/ha (KCHSC; [3]) was 80%. It also gave a pest or weed control at 320 g/ha (KCHSC; [4]) of 90%, a pest or weed control at 320 g/ha (ALOMY) of 90% and a pest or weed control at 20 g/ha (PHBPU) of 80%. For the same compound, the pest or weed control at 80 g/ha (PHBPU; 80 g/ha) was 80%, the pest or weed control at 320 g/ha (PHBPU; 320 g/ha) was 90% and the pest or weed control at 320 g/ha (SETVI; [5]) was 90%. The pest or weed control at 80 g/ha (AMARE) was 80%, the pest or weed control at 320 g/ha (AMARE) was 80% and the pest or weed control at 320 g/ha (LOLRI; 320 g/ha) was 90%. It also gave a pest or weed control at 320 g/ha (POLCO; [6]) of 80%, a pest or weed control at 80 g/ha (VERPE; Veronica persica, 504 h, 80 g/ha, read-out: Post-emergence effect against VERPE in %) of 80% and a pest or weed control at 320 g/ha (VERPE; [7]) of 90%. The pest or weed control at 80 g/ha (MATIN; Tripleurospermum inodorum, 504 h, 80 g/ha, read-out: Post-emergence effect against MATIN in %) was 80%, the pest or weed control at 320 g/ha (MATIN; Tripleurospermum inodorum, 504 h, 320 g/ha, read-out: Post-emergence effect against MATIN in %) was 90% and the pest or weed control at 320 g/ha (DIGSA; [8]) was 90%. For the same compound, the pest or weed control at 80 g/ha (ABUTH; 80 g/ha) was 80%, the pest or weed control at 320 g/ha (ABUTH; 320 g/ha) was 90% and the pest or weed control at 320 g/ha (AVEFA; [9]) was 80%.
With `COC(=O)CCOC(=O)C(OC)Oc1nn(-c2ncccc2F)c(-c2cncc(F)c2)c1C1CC1` (single isomer, unassigned) [Example I-77] the “Post-emergence effect against ECHCG in %” value (ECHCG; 80 g/ha) was 90%, the “Post-emergence effect against ECHCG in %” value (ECHCG; 320 g/ha) was 90% and the “Post-emergence effect against KCHSC in %” value (KCHSC; 20 g/ha) was 80%. For the same compound, the “Post-emergence effect against KCHSC in %” value (KCHSC; 80 g/ha) was 90%, the “Post-emergence effect against KCHSC in %” value (KCHSC; 320 g/ha) was 90% and the “Post-emergence effect against ALOMY” value (ALOMY) was 90%. The “Post-emergence effect against PHBPU in %” value (PHBPU; 80 g/ha) was 90%, the “Post-emergence effect against PHBPU in %” value (PHBPU; 320 g/ha) was 90% and the “Post-emergence effect at 20 g/ha against ZEAMX in %” value (ZEAMX; 20 g/ha) was 0%. For the same compound, the “Post-emergence effect at 80 g/ha against ZEAMX in %” value (ZEAMX; 80 g/ha) was 0%, the “Post-emergence effect against SETVI in %” value (SETVI; 320 g/ha) was 90% and the “Post-emergence effect against LOLRI in %” value (LOLRI; 80 g/ha) was 90%. For the same compound, the “Post-emergence effect against LOLRI in %” value (LOLRI; 320 g/ha) was 90%, the “Post-emergence effect against VIOTR in %” value (VIOTR; 80 g/ha) was 90% and the “Post-emergence effect against VIOTR in %” value (VIOTR; 320 g/ha) was 90%. For the same compound, the “Post-emergence effect against POLCO in %” value (POLCO; 80 g/ha) was 90%, the “Post-emergence effect against POLCO in %” value (POLCO; 320 g/ha) was 90% and the “Post-emergence effect against VERPE in %” value (VERPE; 320 g/ha) was 90%. For the same compound, the “Post-emergence effect against MATIN in %” value (MATIN; 80 g/ha) was 80%, the “Post-emergence effect against MATIN in %” value (MATIN; 320 g/ha) was 80% and the “Post-emergence effect against DIGSA” value (DIGSA; 320 g/ha) was 90%. For the same compound, the “Post-emergence effect against ABUTH” value (ABUTH; 80 g/ha) was 80%, the “Post-emergence effect against ABUTH” value (ABUTH; 320 g/ha) was 80% and the “Post-emergence effect against AVEFA” value (AVEFA; 80 g/ha) was 90%. The “Post-emergence effect against AVEFA” value (AVEFA; 320 g/ha) was 90%.
In the case of `COC(=O)C(OC)Oc1nn(-c2ncccc2F)c(-c2cncc(F)c2)c1I` (stereo not shown) [Example I-72], the pest or weed control at 20 g/ha (ECHCG; Echinochloa crus-galli, 504 h, 20 g/ha, visual rating about 3 weeks after treatment, read-out: Post-emergence effect against ECHCG) is reported as 90%, the pest or weed control at 80 g/ha (ECHCG; [1]) is reported as 90% and the pest or weed control at 320 g/ha (ECHCG; [2]) is reported as 90%. For the same compound, the pest or weed control at 20 g/ha (KCHSC; 504 h, 20 g/ha, read-out: Post-emergence effect against KCHSC in %) was 90%, the pest or weed control at 80 g/ha (KCHSC; [3]) was 90% and the pest or weed control at 320 g/ha (KCHSC; [4]) was 90%. The pest or weed control at 320 g/ha (ALOMY) was 90%, the pest or weed control at 20 g/ha (PHBPU) was 80% and the pest or weed control at 80 g/ha (PHBPU; 80 g/ha) was 90%. It also gave a pest or weed control at 320 g/ha (PHBPU; 320 g/ha) of 90%, a pest or weed control at 20 g/ha (SETVI; Setaria viridis, 504 h, 20 g/ha, read-out: Post-emergence effect against SETVI in %) of 90% and a pest or weed control at 80 g/ha (SETVI; Setaria viridis, 504 h, 80 g/ha, read-out: Post-emergence effect against SETVI in %) of 90%. It also gave a pest or weed control at 320 g/ha (SETVI; [5]) of 90%, a pest or weed control at 20 g/ha (AMARE; 20 g/ha) of 80% and a pest or weed control at 80 g/ha (AMARE) of 80%. It also gave a pest or weed control at 320 g/ha (AMARE) of 80%, a pest or weed control at 320 g/ha (LOLRI; 320 g/ha) of 90% and a pest or weed control at 20 g/ha (VIOTR; Viola tricolor, 504 h, 20 g/ha, read-out: Post-emergence effect against VIOTR in %) of 90%. It also gave a pest or weed control at 80 g/ha (VIOTR; Viola tricolor, 504 h, 80 g/ha, read-out: Post-emergence effect against VIOTR in %) of 90%, a pest or weed control at 320 g/ha (VIOTR; Viola tricolor, 504 h, 320 g/ha, read-out: Post-emergence effect against VIOTR in %) of 90% and a pest or weed control at 20 g/ha (POLCO; Fallopia convolvulus, 504 h, 20 g/ha, read-out: Post-emergence effect against POLCO in %) of 80%. The pest or weed control at 80 g/ha (POLCO; Fallopia convolvulus, 504 h, 80 g/ha, read-out: Post-emergence effect against POLCO in %) was 80%, the pest or weed control at 320 g/ha (POLCO; [6]) was 90% and the pest or weed control at 320 g/ha (VERPE; [7]) was 90%. The pest or weed control at 80 g/ha (DIGSA; Digitaria sanguinalis, 504 h, 80 g/ha, read-out: Post-emergence effect against DIGSA) was 90%, the pest or weed control at 320 g/ha (DIGSA; [8]) was 90% and the pest or weed control at 80 g/ha (ABUTH; 80 g/ha) was 80%. For the same compound, the pest or weed control at 320 g/ha (ABUTH; 320 g/ha) was 90%, the pest or weed control at 80 g/ha (AVEFA; Avena fatua, 504 h, 80 g/ha, read-out: Post-emergence effect against AVEFA) was 90% and the pest or weed control at 320 g/ha (AVEFA; [9]) was 90%.
